In patent US8148428B2 (priority 2006, dated 2012):
pEC50: −log10 of the molar value. Like-named read-outs stand apart in the source and are kept apart here.

Tests used:
[1] = test system: Lassa GP-pseudotyped-virus; assay: microbe, parasite or virus in culture; type: cell-based, Lassa fever virus; set-up: Activity against Lassa GP-pseudotyped-virus specificity: reference not given here
[2] = test system: Lassa fever virus (Josiah strain); assay: organism not typed; type: cell-based; details: for pEC50: read-out: Activity vs. LFV EC50
[3] = test system: Tacaribe envelope pseudotyped virus; assay: organism not typed; type: cell-based; details: read-out: EC50, pseudotyped viral infection, Tacaribe envelope
[4] = test system: Guanarito envelope pseudotyped virus; assay: organism not typed; type: cell-based; details: read-out: EC50, pseudotyped viral infection, Guanarito envelope
[5] = Human immunodeficiency virus 1, read-out: Activity against Lassa GP-pseudotyped-virus EC50

C/C(=N/NC(=O)C1CC1c1ccccc1)c1cccs1 (stereo not drawn) [Compound 600093, 2-Phenyl-cyclopropartecarboxylic acid [1-thiophen-2-yl-eth-(Z)-ylidene]-hydrazide] was tested, and the “Activity against Lassa GP-pseudotyped-virus specificity” value [1] was 2 and the pEC50 [1, 5] was 4.85.

For CC(C)/C(=N\NC(=O)C1CC1c1ccccc1)c1ccccc1 (stereo not drawn) [Compound 600123], the “Activity against Lassa GP-pseudotyped-virus specificity” value [1] was 60 and the pEC50 ([1]; read-out: Activity against Lassa GP-pseudotyped-virus EC50) was 6.70.

For C/C(=N\NC(=O)C1CC1c1ccccc1)c1ccc(-c2ccccc2)cc1 (stereo not drawn) [Compound 600152, 2-Phenyl-cyclopropanecarboxylic acid [1-biphenyl-4-yl-eth-(E)-ylidene]-hydrazide], the “Activity against Lassa GP-pseudotyped-virus specificity” value [1] was >8000 and the pEC50 [1, 5] was 9.00.

With C/C(=N/NC(=O)C1CC1c1ccc(C(C)(C)C)cc1)c1cccc(NC(=O)c2ccccc2F)c1 (stereo not drawn) [Compound 600182, N-[3-(1-[[2-(4-tert-Butyl-phenyl)-cyclopropanecarbonyl]-hydrazono]-ethyl)-phenyl]-2-fluoro-benzamide] the “Activity against Lassa GP-pseudotyped-virus specificity” value [1] was >15 and the pEC50 [1, 5] was 6.10.

With COc1ccc(C(C)=NNC(=O)C2CC2c2ccccc2)cc1 (stereo in doubt) [Compound 600180, 2-Phenyl-cyclopropanecarboxylic acid [1-(4-methoxy-phenyl)-eth-(Z)-ylidene]-hydrazide] the “Activity against Lassa GP-pseudotyped-virus specificity” value [1] was >4000 and the pEC50 [1, 5] was > 8.52.

With C/C(=N\NC(=O)C1CC1c1ccccc1)c1ccc(NC(=O)c2ccc(Cl)s2)cc1 (stereo not drawn) [Compound 600183, 5-Chloro-thiophene-2-carboxylic acid (4-[1-[(2-phenyl-cyclopropanecarbonyl)-hydrazono]-ethyl]-phenyl)-amide] the “Activity against Lassa GP-pseudotyped-virus specificity” value [1] was >4000 and the pEC50 [1, 5] was > 8.52.

C/C(=N\NC(=O)C1CC1c1ccccc1)c1cccc(NC(=O)c2ccccc2F)c1 (stereo not drawn) [Compound 600185] was tested, and the “Activity against Lassa GP-pseudotyped-virus specificity” value [1] was >1.3 and the pEC50 [1, 5] was 5.05.

For C/C(=N/NC(=O)C1CC1c1ccccc1)c1ccccc1Cl (stereo not drawn) [Compound 600092, 2-Phenyl-cyclopropanecarboxylic acid [1-(2-chloro-phenyl)-eth-(Z)-ylidene]-hydrazide], the “Activity against Lassa GP-pseudotyped-virus specificity” value [1] was 20 and the pEC50 [1, 5] was 6.70.

In the case of O=C1Nc2ccccc2/C1=N\NC(=O)C1CC1c1ccccc1 (stereo not drawn) [Compound 600087, 2-Phenyl-cyclopropanecarboxylic acid [2-oxo-1,2-dihydro-indol-(3E)-ylidene]-hydrazide], the “Activity against Lassa GP-pseudotyped-virus specificity” value [1] was >700 and the pEC50 [1, 5] was 7.40.

With CC(=O)Nc1ccc(/C(C)=N/NC(=O)C2CC2c2ccccc2)cc1 (stereo not drawn) [Compound 600184, N-(4-[1-[(2-phenyl-cyclopropanecarbonyl)-hydrazono]-ethyl}-phenyl)-acetamide] the “Activity against Lassa GP-pseudotyped-virus specificity” value [1] was >3000 and the pEC50 [1, 5] was 8.52.

In the case of O=C(N/N=C/c1ccccc1)[C@H]1C[C@@H]1c1ccccc1 [Compound 600075, (1S,2S)-2-Phenyl-cyclopropanecarboxylic acid [1-phenyl-meth-(E)-ylidene]-hydrazide], the pEC50 [1, 5] was < 4.52.

With C/C(=N\NC(=O)C1CC1c1ccccc1)c1ccc(C2CCCCC2)cc1 (stereo not drawn) [Compound 600181, 2-Phenyl-cyclopropanecarboxylic acid [1-(4-cyclohexyl-phenyl)-eth-(E)-ylidene]-hydrazide] the “Activity against Lassa GP-pseudotyped-virus specificity” value [1] was >400 and the pEC50 [1, 5] was 7.70.

For C/C(=N\NC(=O)CCc1ccccc1)c1cccc(N)c1 [Compound 600090, 3-Phenyl-propionic acid [1-(3-amino-phenyl)-eth-(E)-ylidene]-hydrazide], the “Activity against Lassa GP-pseudotyped-virus specificity” value [1] was >18 and the pEC50 [1, 5] was 5.80.

For C/C(=N\NC(=O)C1CC1c1ccccc1)c1ccc(C)cc1 (stereo not drawn) [Compound 600124, 2-Phenyl-cyclopropanecarboxylic acid [1-p-tolyl-eth-(E)-ylidene]-hydrazide], the “Activity against Lassa GP-pseudotyped-virus specificity” value [1] was >700 and the pEC50 [1, 5] was > 7.52.

O=C1Nc2ccc([N+](=O)[O-])cc2/C1=N/NC(=O)C1CC1c1ccccc1 (stereo not drawn) [Compound 600155, 2-Phenyl-cyclopropanecarboxylic acid [5-nitro-2-oxo-1,2-dihydro-indol-(3Z)-ylidene]-hydrazide] was tested, and the “Activity against Lassa GP-pseudotyped-virus specificity” value [1] was >40 and the pEC50 [1, 5] was 6.52.

With C/C(=N/NC(=O)C1CC1c1ccccc1)c1ccc2c3c(cccc13)CC2 (stereo not drawn) [Compound 600156] the “Activity against Lassa GP-pseudotyped-virus specificity” value [1] was “none” and the pEC50 [1, 5] was 5.70.

COc1ccc(/C(C)=N/NC(=O)C2CC2c2ccccc2)c(OC)c1 (stereo not drawn) [Compound 600120, 2-Phenyl-cyclopropanecarboxylic acid [1-(2,4-dimethoxy-phenyl)-eth-(E)-ylidene]-hydrazide] was tested, and the “Activity against Lassa GP-pseudotyped-virus specificity” value [1] was 180 and the pEC50 [1, 5] was 6.92.

For C/C(=N\NC(=O)C1CC1c1ccccc1)c1ccccc1O (stereo not drawn) [Compound 600176, 2-Phenyl-cyclopropanecarboxylic acid [1-(2-hydroxy-phenyl)-eth-(E)-ylidene]-hydrazide], the “Activity against Lassa GP-pseudotyped-virus specificity” value [1] was >14 and the pEC50 [1, 5] was 6.10.

With COc1ccc(/C(C)=N/NC(=O)C2CC2c2ccccc2)cc1OC (stereo not drawn) [Compound 600154, 2-Phenyl-cyctopropanecarboxylic acid [1-(3,4-dimethoxy-phenyl)-eth-(E)-ylidene]-hydrazide] the “Activity against Lassa GP-pseudotyped-virus specificity” value [1] was >50 and the pEC50 [1, 5] was 6.70.

For CCOC(=O)C/C(C)=N/NC(=O)C1CC1c1ccccc1 (stereo not drawn) [Compound 600091, 3-[(2-Phenyl-cyclopropanecarbonyl)-hydrazono]-butyric acid ethyl ester], the “Activity against Lassa GP-pseudotyped-virus specificity” value [1] was >18 and the pEC50 [1, 5] was 5.80.

For C/C(=N/NC(=O)C1CC1c1ccc(C(C)(C)C)cc1)c1ccc(F)cc1 (stereo not drawn) [Compound 600197, 2-(4-tert-Butyl-phenyl)-cyclopropanecarboxylic acid [1-(4-fluoro-phenyl)-eth-(Z)-ylidene]-hydrazide], the “Activity against Lassa GP-pseudotyped-virus specificity” value [1] was 650 and the pEC50 [1, 5] was 7.70.

C/C(=N/NC(=O)C1CC1c1ccccc1)c1ccc(NC(=O)C(F)(F)F)cc1 (stereo not drawn) [Compound 600187, 2,2,2-Trifluoro-N-(4-[1-[(2-phenyl-cyclopropanecarbonyl)-hydrazono]-ethyl]-phenyl)-acetamide] was tested, and the “Activity against Lassa GP-pseudotyped-virus specificity” value [1] was >4000 and the pEC50 [1, 5] was 8.52.

With COc1ccc(/C(C)=N\NC(=O)C2CC2c2ccc(C(C)(C)C)cc2)cc1[N+](=O)[O-] (stereo not drawn) [Compound 600198, 2-(4-tert-Butyl-phenyl)-cyclopropanecarboxylic acid [1-(4-methoxy-3-nitro-phenyl)-eth-(Z)-ylidene]-hydrazide] the “Activity against Lassa GP-pseudotyped-virus specificity” value [1] was >800 and the pEC50 [1, 5] was 7.85.

With C/C(=N/NC(=O)C1CC1c1ccccc1)c1ccc(NC(=O)C2CC2)cc1 (stereo not drawn) [Compound 600100, Cyclopropanecarboxylic acid (4-[1-[(2-phenyl-cyclopropanecarbonyl)-hydrazono]-ethyl]-phenyl)-amide] the “Activity against Lassa GP-pseudotyped-virus specificity” value [1] was >20,000, the pEC50 [1, 5] was 8.70 and the pEC50 [2] was > 6.40.

With C/C(=N\NC(=O)C1CC1c1ccccc1)c1ccc(N(C)C)cc1 (stereo not drawn) [Compound 600178, 2-Phenyl-cyclopropanecarboxylic acid [1-(4-dimethylamino-phenyl)-eth-(E)-ylidene]-hydrazide] the “Activity against Lassa GP-pseudotyped-virus specificity” value [1] was >4000 and the pEC50 [1, 5] was > 8.52.

In the case of C/C(=N\NC(=O)C1CC1c1ccccc1)c1ccc(N)cc1 (stereo not drawn) [Compound 408306, 2-Phenyl-cyclopropanecarboxylic acid [1-(4-amino-phenyl)-eth-(E)-ylidene]-hydrazide], the “Activity against Lassa GP-pseudotyped-virus specificity” value [1] was >2000, the pEC50 [1, 5] was 7.70 and the “Activity vs. LFV T.I. (therapeutic index)” value [2] was >100. The pEC50 [2] was 6.30.

Cc1ccc2c(c1Br)C(=NNC(=O)C1CC1c1ccccc1)C(=O)N2 (stereo not drawn) [Compound 600140, 2-Phenyl-cyclopropanecarboxylic acid [4-bromo-5-methyl-2-oxo-1,2-dihydro-indol-(3E)-ylidene]-hydrazide] was tested, and the “Activity against Lassa GP-pseudotyped-virus specificity” value [1] was >30 and the pEC50 [1, 5] was 6.52.

With C/C(=N\NC(=O)C1CC1c1ccccc1)C1CC1 (stereo not drawn) [Compound 600086, 2-Phenyl-cyclopropanecarboxylic acid [1-cyclopropyl-eth-(E)-ylidene]-hydrazide] the “Activity against Lassa GP-pseudotyped-virus specificity” value [1] was >2 and the pEC50 [1, 5] was 5.00.

For C/C(=N/NC(=O)C1CC1c1ccccc1)c1ccc(NC(=O)c2ccc(Cl)cc2Cl)cc1 (stereo not drawn) [Compound 600162, 2,4-Dichloro-N-(4-[1-[(2-Phenyl-cyclopropanecarbonyl)-hydrazono]ethyl]-phenyl)-benzamide], the “Activity against Lassa GP-pseudotyped-virus specificity” value [1] was >4000 and the pEC50 [1, 5] was > 8.52.

For C/C(=N\NC(=O)C1CC1c1ccccc1)c1ccc(NC(=O)c2ccco2)cc1 (stereo not drawn) [Compound 600161, Furan-2-carboxylic acid (4-[1-[(2-phenyl-cyclopropanecarbonyl)-hydrazono]-ethyl]-phenyl)-amide], the pEC50 [3] was 6.10, the “Activity against Lassa GP-pseudotyped-virus specificity” value [1] was >90,000 and the pEC50 [1, 5] was 9.30. The “Activity vs. LFV T.I. (therapeutic index)” value [2] was >2000, the pEC50 [2] was > 7.70 and the pEC50 [4] was 6.52.
